Values of other authors as cited in US12527813B2, “Methods to stabilize and reverse atherosclerotic lesions by sulfated polysaccharides” (Calroy Health Sciences, LLC, priority 2017, dated 2026).

Tested on: lipid-rich necrotic core
Conditions: 24 months

CC(C)c1nc(N(C)S(C)(=O)=O)nc(-c2ccc(F)cc2)c1/C=C/[C@@H](O)C[C@@H](O)CC(=O)O [rosuvastation]
lipid-rich necrotic core reduced, low dose (5 mg/day): 27% | lumen size and artery stenosis change: virtually no change | lipid-rich necrotic core reduced, all patients (33 patients, low or high dose): about 25% | lipid-rich necrotic core reduced, high dose (40/80 mg/day): 19%
